In patent US9115092B2, “Substituted quinazoline and pyrido-pyrimidine derivatives” (Asana Biosciences, LLC, priority 2010, dated 2015):

Key:
[1] = molecular target: T1, PI3Kα (wild-type), P110/P85α (Homo sapiens, UniProt P42336); test: PI3 Kinase TR-FRET assay, PI3Kα (wild-type); type: biochemical
T1 construct: made in house; host or cells: SF9 insect cells
How it was run: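 TR-FRET read-out of PIP3 formation via biotin-PIP3 displacement (665/615 nm ratio) gave IC50 curves. Enzyme: 5 ng wild-type P110/P85α from Sf9 cells, 60 min RT with compound and PIP2 (MgCl2 40 mM, DTT 5 mM), then 30 min RT kinase reaction at 10 μM ATP and 10 μM PIP2.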

mTOR kinase = molecular target: T2, mTOR kinase (Homo sapiens, UniProt P42345); test: mTOR kinase TR-FRET assay; type: biochemical; conditions: read-out: mTO R
T2 construct: purchased Millipore, USA
How it was run: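 TR-FRET read-out (340 nm excitation, 615/665 nm emission) of Thr389 phosphorylation of a ULight-labeled p70 S6K peptide (50 nM) by mTOR, 20 μM ATP, 60 min room temperature after 60 min compound preincubation. Buffer HEPES pH 7.5 with MnCl2, EGTA; IC50 by sigmoidal dose-response.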

[2] = system: pS6RP(S235/236), PC3 cells; test: In-cell Western assay, pS6RP(S235/236) in PC3 cells; type: cell-based, human; conditions: Homo sapiens, PC-3, In-cell Western
How it was run: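 Overnight-seeded PC3 cells were treated 2 h with serially diluted compound, then fixed and immunostained with phospho-specific primary antibodies and Eu-labelled secondary. Time-resolved Eu signal read at 615 nm (ex 340 nm), normalised by Hoechst 33258 staining (ex 355/em 460 nm); IC50 from sigmoidal dose-response fit.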

PC3 cells [3] = test: XTT assay for cell viability, PC3 cells; type: cell-based, human; conditions: Homo sapiens, PC-3, cell viability
How it was run: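 PC3 cells seeded at 1000 cells/well, grown 24 h, then exposed to serial dilutions of compound for 96 h. Viability read by XTT dye at 37° C, absorbance 465 nm. EC50 from sigmoidal dose-response fit.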

PC3 cells [4] = test: In vivo efficacy study (tumor growth suppression), PC3 xenograft; conditions: PC3 xenograft mice, after 14 days of dosing at 40 mg/kg bid po
Method: PC3 cells were cultured at 37° C. in a 5% CO2 incubator using Hams F12 K medium. Five million (5×10^6) cells were implanted subcutaneously to the right flank of athymic male mice (Harlan, age: 6-7 weeks, weight: about 20 g). Tumor bearing mice were randomized when the tumor volume reached about 100 mm^3. Ten mice were used per group. Dosage regimen of compounds of formula (I) were scheduled on the basis of the PK, PK-PD and maximum tolerated dose studies. Compounds of formula (I) were formulated using HPCD in PBS, pH 7.4 and dosed orally (dose volume, 10 mL/kg). Solutions of the compounds were prepared immediately before dosing the animals. A vehicle control and a reference compound were included along with test compounds.
The tumor size was measured on alternate days using Vernier® calipers. Assuming tumors to be ellipsoid, the tumor volume was calculated using the formula: V=(D×d^2)/2 […]
Changes in tumor volume (Δ volumes) for each treated (T) and control (C) group were calculated by subtracting the mean tumor volume on the first day of treatment (starting day) from the mean tumor volume on the specified observation day. […]
Percentage tumor growth inhibition was calculated as [100−% T/C]. Percentage body weight change was calculated as [(Body weight on specified observation day−Body weight on starting day)/Body weight on starting day]×100. […]

T1 sequence (P42336 whole entry): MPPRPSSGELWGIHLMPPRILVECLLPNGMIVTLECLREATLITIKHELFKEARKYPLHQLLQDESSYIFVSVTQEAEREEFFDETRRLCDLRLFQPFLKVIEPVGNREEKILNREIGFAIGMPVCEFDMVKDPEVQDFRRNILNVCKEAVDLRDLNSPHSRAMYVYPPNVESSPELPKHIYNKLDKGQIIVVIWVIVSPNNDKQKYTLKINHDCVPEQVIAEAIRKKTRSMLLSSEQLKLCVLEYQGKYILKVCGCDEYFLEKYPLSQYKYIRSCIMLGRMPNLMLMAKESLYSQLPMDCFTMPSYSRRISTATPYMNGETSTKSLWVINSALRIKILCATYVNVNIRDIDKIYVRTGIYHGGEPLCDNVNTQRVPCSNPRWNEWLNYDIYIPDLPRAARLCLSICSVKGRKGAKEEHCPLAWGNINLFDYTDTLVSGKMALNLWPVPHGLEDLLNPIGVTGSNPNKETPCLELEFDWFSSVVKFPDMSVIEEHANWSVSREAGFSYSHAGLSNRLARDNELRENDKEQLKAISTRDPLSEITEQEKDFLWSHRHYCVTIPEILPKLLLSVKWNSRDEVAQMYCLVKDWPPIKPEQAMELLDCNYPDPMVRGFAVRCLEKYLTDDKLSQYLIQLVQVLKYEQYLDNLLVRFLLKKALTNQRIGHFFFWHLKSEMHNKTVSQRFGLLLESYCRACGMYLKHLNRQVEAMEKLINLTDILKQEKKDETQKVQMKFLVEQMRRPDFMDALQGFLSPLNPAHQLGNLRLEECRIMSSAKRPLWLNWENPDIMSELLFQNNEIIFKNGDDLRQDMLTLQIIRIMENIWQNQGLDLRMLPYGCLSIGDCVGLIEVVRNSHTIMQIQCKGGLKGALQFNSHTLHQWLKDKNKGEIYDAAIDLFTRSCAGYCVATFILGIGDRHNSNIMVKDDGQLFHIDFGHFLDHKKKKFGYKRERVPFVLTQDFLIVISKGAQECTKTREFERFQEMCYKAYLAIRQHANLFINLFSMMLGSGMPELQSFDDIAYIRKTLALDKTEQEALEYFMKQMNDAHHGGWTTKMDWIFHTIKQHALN
T1 sequence (P27986 whole entry partner): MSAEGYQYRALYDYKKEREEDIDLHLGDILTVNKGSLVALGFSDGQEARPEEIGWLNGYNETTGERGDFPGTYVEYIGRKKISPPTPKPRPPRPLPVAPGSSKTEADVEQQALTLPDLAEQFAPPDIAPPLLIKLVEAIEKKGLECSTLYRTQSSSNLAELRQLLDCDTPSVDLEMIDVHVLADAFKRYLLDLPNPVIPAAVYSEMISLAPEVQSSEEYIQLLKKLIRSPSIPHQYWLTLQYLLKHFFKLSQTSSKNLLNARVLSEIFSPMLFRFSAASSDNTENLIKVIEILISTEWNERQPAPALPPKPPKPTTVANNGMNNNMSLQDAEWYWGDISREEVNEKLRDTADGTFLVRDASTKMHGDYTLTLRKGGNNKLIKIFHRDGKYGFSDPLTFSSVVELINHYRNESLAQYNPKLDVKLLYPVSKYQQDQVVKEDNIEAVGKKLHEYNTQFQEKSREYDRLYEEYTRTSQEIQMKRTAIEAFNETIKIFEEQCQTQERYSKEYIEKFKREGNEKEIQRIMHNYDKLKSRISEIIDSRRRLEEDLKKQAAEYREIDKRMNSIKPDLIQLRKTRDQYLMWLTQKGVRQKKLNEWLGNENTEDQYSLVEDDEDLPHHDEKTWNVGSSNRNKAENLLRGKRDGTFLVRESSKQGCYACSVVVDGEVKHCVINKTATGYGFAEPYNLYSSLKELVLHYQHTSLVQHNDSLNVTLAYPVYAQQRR

## CN(C)C(=O)c1ccc(NC(=O)Nc2ccc(-c3nc(N4CCOCC4)c4ncc(-c5cnn(C)c5)cc4n3)cc2F)cc1 [Example 82, 4-(3-(2-fluoro-4-(7-(1-methyl-1H-pyrazol-4-yl)-4-morpholino-pyrido[3,2-d]pyrimidin-2-yl)phenyl)ureido)-N,N-dimethyl-benzamide]
[1]
  IC50: < 50 nM
mTOR kinase
  IC50: < 50 nM
[2]
  IC50: 201 to 10000 nM
PC3 cells [3]
  IC50: 201 to 10000 nM
PC3 cells [4]
  tumor growth inhibition relative to vehicle control group: about 60%

## CN(C)C(=O)c1ccc(NC(=O)Nc2ccc(-c3nc(N4CCOCC4)c4ccc(-c5ccc(CO)o5)cc4n3)cc2)cc1 [Example 183, 4-(3-(4-(7-(5-(hydroxymethyl)furan-2-yl)-4-morpholino-quinazolin-2-yl)phenyl)ureido)-N,N-dimethyl-benzamide]
[1]
  IC50: < 50 nM
mTOR kinase
  IC50: < 50 nM
[2]
  IC50: 201 to 10000 nM
PC3 cells [3]
  IC50: 201 to 10000 nM
PC3 cells [4]
  tumor growth inhibition relative to vehicle control group: about 60%
